Data: patent publication EP0442958B1, “PHARMACEUTICAL COMPOSITION FOR OPHTHALMIC USE COMPRISING A WATER SOLUBLE ACID ADDITION SALT OF IBOPAMINE” (ZAMBON GROUP S.p.A., priority 1988, dated 1990)
Counter-ions that a name gives are not always drawn.

Experiments:
[1] = Stability of aqueous ibopamine solutions (ibopamine titer); assay type: physicochemical; details: aqueous solutions buffered at pH 4.5, room temperature
[2] = well known, WO 86/03970; cited from earlier work

SMILES	period for which ibopamine titer remains substantially unchanged [1] [days]	mydriatic activity [2]
CNCCc1ccc(OC(=O)C(C)C)c(OC(=O)C(C)C)c1 [ibopamine hydrochloride, Ibopamine hydrochloride]	20 to 25	–
CNCCc1ccc(OC(=O)C(C)C)c(OC(=O)C(C)C)c1 [ibopamine, epinine 3,4-0-diisobutyrate]	–	endowed with mydriatic activity
